Data from patent US20030040507A1, “Pharmaceutical composition comprising ifosfamide and carnitine” (priority 1997, published 2003).

Assays:
[1] = system: proximal tubule of the kidneys; test: comparative investigation of nephrotoxicity in healthy and tumour-bearing rats; type: in vivo
Description: In accordance with the set object, comparative investigations were investigated [sic] out with respect to effect on the nephrotoxicity in healthy and tumour-bearing rats after administration of ifosfamide on its own and in combination with L-carnitine. The doses for L-carnitine were selected such that the compound itself causes no side effects at all in the animals.

tumour-bearing rats = test: antitumour action of ifosfamide in combination with L-carnitine; type: in vivo; details: FIGS. 1 and 2
rats = details: L-carnitine together with ifosfamide; cited from earlier work

Row | SMILES | damage to the proximal tubule of the kidneys ([1]; ifosfamide on its own, healthy and tumour-bearing rats (both animal groups)) | antitumour action of ifosfamide (tumour-bearing rats) | effect on ifosfamide-induced damage to the proximal tubule of the kidney ([1]; simultaneous administration of L-carnitine 2×100 mg/kg i.v. with ifosfamide, rats) | clinical result (rats)
1 | O=P1(NCCCl)OCCCN1CCCl (stereo not shown) [ifosfamide] | clear dose-dependent damage | not affected | – | –
2 | C[N+](C)(C)C[C@H](O)CC(=O)[O-] [L-carnitine] | – | – | antagonized significantly | decreased lethargy
